Measured values reported in patent publication US5976523A, “Method for healing compromised tissues using pyrimidine derivatives” (Mitsui Pharmaceuticals, Inc., priority 1995, dated 1999).
Where a name gives a salt, the structure may show the parent alone.

How the values were obtained:
TMK1 cells = experiment: TMK1 cell migration in Boyden's chamber; assay type: cell-based; settings: 4 hours
Protocol: TMK1 cells, low-differentiating epithelial cells, were treated with trypsin. […] The culture medium in the lower well was then subjected to fixing and staining, and cells which had migrated therein were counted. Experiments were conducted concurrently in three chambers.
Each value will be presented as a mean ±S.D. and with respect to each compound, numbers of cells will be presented in the order of a) control, b) each pyrimidine compound (whose concentration will be specifically indicated), c) 10 ng/ml of EGF, and d) a mixed solution of each pyrimidine compound + EGF.

[1] = tested on: CAMs (chorioallantoic membranes); experiment: Angiogenesis on chorioallantoic membranes (CAM); assay type: in vivo, chick; settings: for number of new blood vessels (M±SE): day 3
Protocol: For a bFGF, various assay systems assessing the angiogenesis activity of the bFGF as an index are usable. The shells of chick embryos are fenestrated centrally corresponding to the air spaces thereof, whereby the chorioallantoic membranes (CAMS) are exposed. Solutions of the bFGF and a test medicament at various concentrations were applied onto the respective CAMs. Incubation was continued. Several days later, the degrees of angiogenesis were investigated under a microscope. This method is preferably employed. […] The test medicament is therefore found to be useful for the reduction of a time required for the construction of a skin-equivalent tissue. […] Also with respect to a VEGF, its angiogenesis activity can be assayed in a similar system.
The shells of eggs on the 10th day after fertilization were fenestrated centrally corresponding to air spaces thereof, whereby CAMs (chorioallantoic membranes) were exposed. A nylon film in the form of a square of 3 mm in side was placed over the CAM, and onto the nylon film, a solution of bFGF as a growth and/or differentiation factor or the pyrimidine compound according to the present invention was dropped in an amount of 8 ul. Incubation was continued at 38° C. On the 72nd hour, the eggs were moved to a cool place controlled at 4° C. After the eggs were left over for 2 to 3 hours there, the degree of angiogenesis in each egg was investigated under a microscope. The angiogenesis was determined based on the number of radial blood vessels equal to or larger than 0.1 mm in diameter. Onto the nylon disk placed over the CAMS, 1, 10, and 100 ng/ml solutions of recombinant human bFGF (product of Genzyme Corporation) in physiological saline and 0.01 to 1 mM solutions of the individual pyrimidine compound in physiological saline were applied singly or in combination.

PDGF-A mRNAs = experiment: Polysome distribution (translation) of PDGF-A mRNAs in rat SMCs; assay type: cell-based
Protocol: SMCs were prepared following the method proposed by Ross and Klebanoff in "J. Cell. […] A rat thoracic aorta was excised. After the tunica externa was peeled off, the tunica media and the tunica intima were minced into 2-3 mm^2. The minced sections were placed standstill in a 25-cm^2 flask which contained Waymouth's MB 752/1 medium containing 10% FBS and 80 ng/ml of gentamycin (product of Schering-Plough Corp.), followed by incubation at 37° C. for 2 to 3 weeks in the presence of 5% carbon dioxide gas (primary culture). The same volume of a trypsin-EDTA solution was added to the flask. After the sections were treated at 37° C. for 5 minutes to peel off cells, the cells were diluted with 10% FBS-Waymouth's MB 752/1 medium and then subcultured (second generation). Subculture was successively conducted likewise whenever the SMC became confluent. In the following experiments, the cells from the 5th generation to the 12th generation were employed. After reach in confluence of cells, the cultured SMCs were cultured for 2 days in a serum-free medium to avoid influence of serum. The SMCs were then added with thrombin (1.0 U/ml) or serotonin (5 μM), followed by incubation at 37° C. for 6 hours under which bring about induction of PDGF-A mRNAs at the maximum. To prevent dissociation of ribosomes and mRNAs, cycloheximide (100 μg/ml) was added 5 minutes before cells were collected. […] Biol. Chem.", 267, 508 ff, 1992 with slight modifications. The cells, which had been collected by the treatment with trypsin, were washed with PBS containing cycloheximide (100 μg/ml). A cell precipitate was then added with 500 μl of a high-salt lysis buffer (20 mM Tris-HCl pH 7.5, 250 mM NaCl, 5 mM MgCl2, 0.1% Noni det P-40, 0.2% DOC) for homogenization. The homogenate was centrifuged under 12,000×g at 4° C. for 10 minutes. The resulting supernatant was added with 67 μl of a heparine mix (7.4 mg/ml heparine, 1.1M NaCl, 15 mM DTT and RNasin). 200 μl of the extract were layered on 5 ml of 0.5-1.25M linear sucrose gradient (which contained 20 mM Tris-HCl pH 7.4, 10 mM NaCl, 3 mM MgCl2), followed by centrifugation under 45,000 rpm for 90 minutes in a "Hitachi […]". While monitoring the absorbance at 260 nm, ten (10) fractions were obtained. […] Subsequent to incubation at 37° C. for 1 hour, each fraction was extracted once with 1/2 volume of phenol, twice with 1/2 volume aliquots of chloroform, and once with the equal volume of chloroform, whereby proteins were removed. The water layer was added with glycogen (20 μg/ml) as a coprecipitant and then with 0.03M of sodium acetate, and RNAs were caused to precipitate with 2 volumes of ethanol. After RNAs were incubated at 65° C. for 5 minutes in a solution containing 60% of formamide, 5.9% of formaldehyde and the equal volume of MOPS buffer (10 mM MOPS pH 7.0, 4 mM NaOAc, 0.5 mM EDTA), electrophoresis was conducted across 1.2% agarose gels containing the equal volume of MOPS buffer so that RNAs were. isolated. After the gel was washed with 20 volumes of SSC, RNAs were blotted overnight to a Gene Screen Plus membrane by the capillary method. Fixing of the RNAs was conducted by exposing them for 1 minute at a distance of 10 cm from […]. Using a "QuickHyb Hybridization Solution" (product of Strategene Ltd.), hybridization was conducted following the instruction manual attached to the solution. Results of autoradiography were quantitated with reference to the NIH Image. […]

Compound: CN1Cc2nc(N3CCNCC3)ncc2C1=O [Compound B, 2-piperazino-6-methyl-5-oxo-5,6-dihydro(7H)pyrro[3,4-d]pyrimidine maleate]
- numbers of cells counted (migrated), mean ±S.D. (TMK1 cells; compound 1 mM + EGF 10 ng/ml): 111.2±8.0
- numbers of cells counted (migrated), mean ±S.D. (TMK1 cells; compound alone, 1 mM): 7.4±3.0
- number of new vessels (M±SE) ([1]; bFGF (concentration not stated) + 0.01 mM compound): 8.1±1.1
- number of new vessels (M±SE) ([1]; bFGF (concentration not stated) + 0.1 mM compound): 8.5±0.8
- number of new vessels (M±SE) ([1]; bFGF (concentration not stated) + 1 mM compound): 9.3±0.5
- angiogenesis ability of bFGF ([1]; bFGF + compound): synergistically enhanced
- number of new blood vessels (M±SE) ([1]; compound alone 0.01 mM): 3.5±0.9
- number of new blood vessels (M±SE) ([1]; compound alone 0.1 mM): 3.4±0.5
- number of new blood vessels (M±SE) ([1]; compound alone 1 mM): 4.4±0.7
- translation state of 1.3 kb PDGF-A mRNAs (PDGF-A mRNAs; compound): in a translated form
- translation state of 1.7 kb PDGF-A mRNAs (PDGF-A mRNAs; compound, serum-free medium): converted into a translated form
- translation state of PDGF-A mRNAs (PDGF-A mRNAs; thrombin + compound): converted into a translated form
